Assay results from the supplement of paper PMC10307832.

How the values were obtained:
Assay in all cases: relative viability (nuclei count vs DMSO), 5 days (fraction); higher = more cells survive
Bortezomib + Lapatinib = compound: CC(C)C[C@H](NC(=O)[C@H](Cc1ccccc1)NC(=O)c1cnccn1)B(O)O [Bortezomib] + CS(=O)(=O)CCNCc1ccc(-c2ccc3ncnc(Nc4ccc(OCc5cccc(F)c5)c(Cl)c4)c3c2)o1 [Lapatinib] (partner 2 µM)
Method in brief: (§1)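 Lung cancer cell lines in 1536-well plates got either a single drug or a fixed anchor-drug dose together with five library-drug doses (not always all listed) in √10 steps, by pin tool, on the day after seeding. Nuclei were counted after 5 days, and relative viability is the treated-to-vehicle ratio of nuclei counts. Values are medians of duplicate plates.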

[1] = compound: CC1=CC(=NN1)NC2=CC(=NC(=N2)/C=C/C3=CC=CC=C3)N4CCN(CC4)C + Cc1nc(Nc2ncc(C(=O)Nc3c(C)cccc3Cl)s2)cc(N2CCN(CCO)CC2)n1 [Dasatinib] (partner 0.075 µM)
Method in brief: as §1

Obatoclax + Vorinostat = compound: COC1=CC(c2cc3ccccc3[nH]2)=N/C1=C\c1[nH]c(C)cc1C [Obatoclax] + O=C(CCCCCCC(=O)Nc1ccccc1)NO [Vorinostat] (partner 1 µM)
Method in brief: as §1

Bortezomib + Linsitinib = compound: CC(C)C[C@H](NC(=O)[C@H](Cc1ccccc1)NC(=O)c1cnccn1)B(O)O [Bortezomib] + C[C@]1(O)C[C@@H](c2nc(-c3ccc4ccc(-c5ccccc5)nc4c3)c3c(N)nccn32)C1 [Linsitinib] (partner 1 µM)
Method in brief: as §1

Bortezomib + Crizotinib = compound: CC(C)C[C@H](NC(=O)[C@H](Cc1ccccc1)NC(=O)c1cnccn1)B(O)O [Bortezomib] + C[C@@H](Oc1cc(-c2cnn(C3CCNCC3)c2)cnc1N)c1c(Cl)ccc(F)c1Cl [Crizotinib] (partner 1 µM)
Method in brief: as §1

Cell Line: NCI-H650
- relative viability (Bortezomib + Lapatinib; first compound 0.000632 µM): 0.596
- relative viability (Bortezomib + Lapatinib; first compound 0.002 µM): 1.02
- relative viability (Bortezomib + Lapatinib; first compound 0.006325 µM): 0.382
- relative viability (Bortezomib + Lapatinib; first compound 0.02 µM): 0.175
- relative viability ([1]; first compound 0.253 µM): 0.507
- relative viability ([1]; first compound 0.8 µM): 0.517
- relative viability ([1]; first compound 2.53 µM): 0.352
- relative viability ([1]; first compound 8 µM): 0.195
- relative viability (Obatoclax + Vorinostat; first compound 0.01 µM): 0.439
- relative viability (Obatoclax + Vorinostat; first compound 0.03162 µM): 0.444
- relative viability (Obatoclax + Vorinostat; first compound 0.3162 µM): 0.418
- relative viability (Obatoclax + Vorinostat; first compound 1 µM): 0.384
- relative viability (Bortezomib + Linsitinib; first compound 0.000632 µM): 0.806
- relative viability (Bortezomib + Linsitinib; first compound 0.002 µM): 0.811
- relative viability (Bortezomib + Linsitinib; first compound 0.006325 µM): 0.338
- relative viability (Bortezomib + Linsitinib; first compound 0.02 µM): 0.234
- relative viability (Bortezomib + Crizotinib; first compound 0.000632 µM): 0.753
- relative viability (Bortezomib + Crizotinib; first compound 0.002 µM): 0.584
- relative viability (Bortezomib + Crizotinib; first compound 0.006325 µM): 0.25
- relative viability (Bortezomib + Crizotinib; first compound 0.02 µM): 0.177
